From patent US8716285B2, “N-hydroxy-benzamids for the treatment of cancer” (Hoffmann-La Roche Inc., priority 2010, dated 2014)

How the values were obtained:
[1] = target: recombinant human HDAC8 (Homo sapiens (Human), UniProt Q9BY41); assay: HDAC8 inhibition: recombinant HDAC8 fluorometric assay; assay type: biochemical; conditions: recombinant human HDAC8, substrate Ac-Arg-His-Lys-Lys(ε-acetyl)-AMC
Procedure: A competitive inhibitory assay of HDAC8 was carried out by using recombinant HDAC8 and a commercial substrate Ac-Arg-His-Lys-Lys(ε-acetyl)-AMC.
Compounds were tested for their ability to inhibit histone deacetylase 8 using an in vitro deacetylation assay. The enzyme source for this assay was recombinant human HDAC8 protein expressed and purified from insect cells. […] The substrate consisted of a commercial product Ac-Arg-His-Lys-Lys(ε-acetyl)-AMC (substrate is available from Cayman Chemical). […] In a detailed procedure, 8 μl of HDAC8 enzyme solution (0.125 μg/μl) was transferred to assay plates (CORNING 3676). 1 μl of half-log diluted compounds were added into wells and incubated for 15 min at rt. After that, 8 μl of substrate solution was transferred to the wells and incubated for 30 min at rt. After deacetylation of the substrate by incubation with HDAC8 enzyme, subsequent exposure to a developing reagent produced a fluorophore that was directly proportional to the level of deacetylation. So 4 μl of developer regent (Cayman 10006394) was added into the wells in the assay plates and incubated for 15 min. The fluorescence signal was measured by a FlexStation3 plate reader (excitation wave length 340-360 nm; emission wave length 440-465 nm). The IC50 was calculated after normalization and curve fitting using XLfit4.0 software. Inhibition %=[Mean(top)−signal(sample)]*100/[Mean(top)−Mean(bottom)].

[2] = target: HDAC6 (Homo sapiens (Human), UniProt Q9UBN7); assay: Tubulin acetylation cytoblot assay (A549 cells); assay type: cell-based; conditions: 17-18 h, concentration for 50% induction of acetylated tubulin, read-out: Tub-ac EC50
Chain of HDAC6 (Q9UBN7 whole entry): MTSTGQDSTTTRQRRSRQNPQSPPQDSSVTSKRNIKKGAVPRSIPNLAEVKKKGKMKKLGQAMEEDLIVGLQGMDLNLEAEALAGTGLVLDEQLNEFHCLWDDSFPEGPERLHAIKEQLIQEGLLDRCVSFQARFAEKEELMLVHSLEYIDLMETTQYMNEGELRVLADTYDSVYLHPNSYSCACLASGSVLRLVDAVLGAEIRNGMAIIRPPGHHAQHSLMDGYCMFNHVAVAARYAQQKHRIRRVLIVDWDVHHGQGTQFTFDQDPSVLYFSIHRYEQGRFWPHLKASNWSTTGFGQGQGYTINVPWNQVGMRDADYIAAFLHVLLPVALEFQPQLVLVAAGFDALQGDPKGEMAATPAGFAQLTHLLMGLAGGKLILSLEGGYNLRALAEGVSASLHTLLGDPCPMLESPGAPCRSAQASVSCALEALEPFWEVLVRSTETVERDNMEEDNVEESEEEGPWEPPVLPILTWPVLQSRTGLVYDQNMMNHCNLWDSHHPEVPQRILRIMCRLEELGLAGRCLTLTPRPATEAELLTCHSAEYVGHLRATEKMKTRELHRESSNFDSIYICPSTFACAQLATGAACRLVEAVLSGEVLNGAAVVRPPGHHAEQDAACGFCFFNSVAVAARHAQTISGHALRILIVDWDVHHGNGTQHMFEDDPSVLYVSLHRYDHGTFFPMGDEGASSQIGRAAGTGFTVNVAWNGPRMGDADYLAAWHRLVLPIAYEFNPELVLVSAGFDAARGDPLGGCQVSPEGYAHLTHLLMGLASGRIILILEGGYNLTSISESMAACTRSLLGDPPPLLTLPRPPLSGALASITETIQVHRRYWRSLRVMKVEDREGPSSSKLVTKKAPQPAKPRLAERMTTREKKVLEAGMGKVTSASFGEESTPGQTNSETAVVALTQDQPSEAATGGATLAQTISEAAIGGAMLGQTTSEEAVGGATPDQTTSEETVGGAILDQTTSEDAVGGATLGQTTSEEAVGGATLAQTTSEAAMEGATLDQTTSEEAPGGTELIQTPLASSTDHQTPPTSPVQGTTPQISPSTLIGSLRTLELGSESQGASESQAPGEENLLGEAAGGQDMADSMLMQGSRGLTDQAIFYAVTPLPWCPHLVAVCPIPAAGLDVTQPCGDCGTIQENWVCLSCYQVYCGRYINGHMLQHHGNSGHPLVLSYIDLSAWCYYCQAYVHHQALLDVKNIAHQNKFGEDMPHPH
Procedure: Tubulin acetylation is a PD marker for HDAC6 inhibition. The extent of tubulin acetylation represents the inhibitory effect on HDAC6.
Novel compounds were tested for their ability to inhibit HDAC6 using a cell-based deacetylation assay. Tubulin acetylation was detected by the anti-acetylated tubulin antibody (Sigma) and horse radish peroxidase (HRP) conjugated secondary antibody (KangChen Bio. Tech.). […] 20 μl of diluted compound solution was transferred to the cell culture plate and incubated for 17-18 h. After medium removal and fixation by formaldehyde (3.7% paraformaldehyde in TBS), the cells in the plates were treated with 180 μl of −20° C. MeOH and incubated for 5 min at rt. The cell lysis was incubated with 75 μl of primary anti-acetylated tubulin antibody and secondary HRP conjugated antibody solution (1:750 anti-acetylated tubulin, 1:750 HRP conjugated anti-mouse IgG in antibody dilution buffer not containing sodium azide) for 4 h at 4° C. By adding the HRP substrate, enhanced chemiluminescence (ECL) reagent (GE Healthcare) generated luminescence corresponding to the level of tubulin acetylation. So that 75 μl of ECL was added into the wells and the luminescence from each well was immediately quantified by the plate reader. Based on the luminescence reading, the IC50s against HDAC6 of the tested compounds were calculated by plotting the curve with XLfit4.0 software. Inhibition %=[signal(sample)−Mean(bottom)]*100/[Mean(top)−Mean(bottom)]

[3] = system: p21 promoter-luciferase construct; assay: p21 reporter gene induction in HeLa cells transfected with p21 promoter-luciferase construct; assay type: cell-based; conditions: for p21 RP3: relative gene level of p21 induced compared to MS275 at 3 μM; for p21 RP10: relative level of p21 induced compared to MS275 at 10 μM; for p21 RP30: relative level of p21 induced compared to MS275 at 30 μM
Procedure: As a surrogate for in-cell HDAC1/2/3 inhibition, p21 induction was used as a counterscreen to evaluate the selectivity of the compounds in the present invention toward HDAC6 or HDAC8.
The novel compounds of the present invention were tested for their ability to induce p21 gene expression using a reporter gene assay involving HeLa cells transfected with a p21 promoter-luciferase construct. The p21 promoter contained the Sp1/Sp3 binding site for HDAC but not the upstream p53 binding site. Briefly, the day before transfection, HeLa cells were seeded at 11,000 cells/well in a 96-well culture plate and incubated at 37° C. in 5% CO2 overnight. A transfection media was prepared prior to transfection according to the following procedure: (1) 5 μl serum-free DMEM, 0.15 μl Fugene 6 reagent, 40 ng p21-luc, 10 ng GFP were mixed gently and incubated at rt for 30 minutes; (2), then 98 μl DMEM (with 10% FBS, 1% penicillin and streptomycin) was added to the DNA: Fugene 6 reagent complex and mixed gently. For transfection, the medium was removed and replaced with 100 μl/well transfection media which was prepared according to the procedure above. After incubating the cells for 24 hours at 37° C. in 5% CO2, fresh media and test compounds were added to the wells and the cells further incubated for 15 hours at 37° C. in 5% CO2. Cells were lysed by adding 80 μl/well of a cell culture lysis reagent (Promega). […] 100 μl luciferase assay reagent (Promega) was then added to every 20 μl cell lysate for luminometer detection. […] Induction activity for specific representative compounds can be found in Table 3.

Chain of recombinant human HDAC8 (Q9BY41 whole entry): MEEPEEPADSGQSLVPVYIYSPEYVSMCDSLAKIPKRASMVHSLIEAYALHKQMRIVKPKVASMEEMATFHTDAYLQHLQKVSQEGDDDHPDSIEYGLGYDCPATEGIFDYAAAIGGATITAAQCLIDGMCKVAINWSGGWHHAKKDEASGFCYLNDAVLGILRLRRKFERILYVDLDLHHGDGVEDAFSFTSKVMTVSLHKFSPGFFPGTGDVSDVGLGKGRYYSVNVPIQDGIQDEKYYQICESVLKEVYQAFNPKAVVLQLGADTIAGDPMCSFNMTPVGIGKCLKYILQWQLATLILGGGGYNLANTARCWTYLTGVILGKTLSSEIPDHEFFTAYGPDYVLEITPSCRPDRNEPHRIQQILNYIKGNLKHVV

Row | SMILES | IC50 [1] | EC50 [2] | p21 RP3 [3] | p21 RP10 [3] | p21 RP30 [3]
1 | COc1cccc(C(=O)NC2CNc3ccc(C(=O)NO)cc3C2)c1 (stereo not shown) [Example 54, 3-(3-Methoxy-benzoylamino)-1,2,3,4-tetrahydro-quinoline-6-carboxylic acid hydroxyamide] | 2.81 µM | 3.39 µM | 0.03 | 0.03 | 0.07
2 | COc1ccc(-c2ccnc(NC3CCc4ccc(C(=O)NO)cc4C3)n2)c(OC)c1 (stereo not shown) [Example 18, 7-[4-(2,4-Dimethoxy-phenyl)-pyrimidin-2-ylamino]-5,6,7,8-tetrahydro-naphthalene-2-carboxylic acid hydroxyamide] | 1.23 µM | 1.37 µM | 0.43 | 0.06 | −0.06
3 | O=C(NO)c1ccc2c(c1)CC(NC(=O)c1cccc(C(F)(F)F)c1)CN2 (stereo not shown) [Example 57, 3-(3-Trifluoromethyl-benzoylamino)-1,2,3,4-tetrahydro-quinoline-6-carboxylic acid hydroxyamide] | 2.67 µM | 7.13 µM | 0.07 | 0.01 | 0.04
4 | O=C(NO)c1ccc2c(c1)CC(Nc1ccc([N+](=O)[O-])cc1)CC2 (stereo not shown) [Example 3, 7-(4-nitro-phenylamino)-5,6,7,8-tetrahydro-naphthalene-2-carboxylic acid hydroxyamide] | 3.74 µM | 1.86 µM | 0.08 | −0.08 | −0.06
5 | O=C(NO)c1cc2c(cc1F)CCC(Nc1nccc(-c3cccnc3)n1)C2 (stereo not shown) [Example 50, 3-Fluoro-7-(4-pyridin-3-yl-pyrimidin-2-ylamino)-5,6,7,8-tetrahydro-naphthalene-2-carboxylic acid hydroxyamide] | 1.51 µM | 6.43 µM | 0.26 | 0.03 | −0.01
6 | O=C(NO)c1ccc2c(c1)CC(Nc1nccc(-c3ccc(Cl)cc3Cl)n1)CC2 (stereo not shown) [Example 20, 7-[4-(2,4-Dichloro-phenyl)-pyrimidin-2-ylamino]-5,6,7,8-tetrahydro-naphthalene-2-carboxylic acid hydroxyamide] | 1.52 µM | 6.2 µM | −0.71 | −0.44 | −0.40
7 | O=C(NO)c1ccc2c(c1)CC(Nc1nccc(-c3ccc(C(F)(F)F)cc3)n1)CC2 (stereo not shown) [Example 19, 7-[4-(4-Trifluoromethyl-phenyl)-pyrimidin-2-ylamino]-5,6,7,8-tetrahydro-naphthalene-2-carboxylic acid hydroxyamid] | 1.69 µM | 5 µM | −0.18 | −0.26 | −0.29

These reach a lower IC50 [1]. Values come first.

Row | IC50 [1] | EC50 [2] | SMILES | p21 RP3 [3] | p21 RP10 [3] | p21 RP30 [3]
8 | 0.93 µM | 3.74 µM | O=C(NO)c1cc2c(cc1F)CCC(NS(=O)(=O)c1cccc(Cl)c1)C2 (stereo not shown) [Example 52, 7-(3-Chloro-benzenesulfonylamino)-3-fluoro-5,6,7,8-tetrahydro-naphthalene-2-carboxylic acid hydroxyamide] | 0.12 | 0.01 | −0.02
9 | 0.91 µM | 4.2 µM | CCCCS(=O)(=O)NC1CCc2ccc(C(=O)NO)cc2C1 (stereo not shown) [Example 39, 7-(Butane-1-sulfonylamino)-5,6,7,8-tetrahydro-naphthalene-2-carboxylic acid hydroxyamid] | 0.08 | 0.03 | 0.04
10 | 0.85 µM | 1.07 µM | O=C(NO)c1ccc2c(c1)CC(NS(=O)(=O)c1ccc(Cl)cc1)CC2 (stereo not shown) [Example 41, 7-(4-Chloro-benzenesulfonylamino)-5,6,7,8-tetrahydro-naphthalene-2-carboxylic acid hydroxyamide] | −0.15 | 0.35 | 0.05
11 | 0.8 µM | 3.46 µM | CN(C)c1cccc(-c2ccnc(NC3CCc4ccc(C(=O)NO)cc4C3)n2)c1 (stereo not shown) [Example 16, 7-[4-(3-Dimethylamino-phenyl)-pyrimidin-2-ylamino]-5,6,7,8-tetrahydro-naphthalene-2-carboxylic acid hydroxyamid] | 1.50 | 0.40 | 0.30
12 | 0.48 µM | 7.86 µM | O=C(NO)c1ccc2c(c1)CC(Nc1nccc(-c3cnc4ccccc4c3)n1)CC2 (stereo not shown) [Example 34, 7-(4-Quinolin-3-yl-pyrimidin-2-ylamino)-5,6,7,8-tetrahydro-naphthalene-2-carboxylic acid hydroxyamide] | 0.42 | 0.31 | −0.02
13 | 0.47 µM | 3.42 µM | O=C(NO)c1ccc2c(c1)CC(NS(=O)(=O)c1ccc(Cl)c(Cl)c1)CC2 (stereo not shown) [Example 47, 7-(3,4-Dichloro-benzenesulfonylamino)-5,6,7,8-tetrahydro-naphthalene-2-carboxylic acid hydroxyamide] | 0.08 | 0.01 | −0.04
14 | 0.37 µM | 6.2 µM | O=C(NO)c1ccc2c(c1)CC(NS(=O)(=O)c1cccnc1)CC2 (stereo not shown) [Example 48, 7-(Pyridine-3-sulfonylamino)-5,6,7,8-tetrahydro-naphthalene-2-carboxylic acid hydroxyamide] | 0.41 | 0.17 | 0.17
15 | 0.3 µM | 0.83 µM | O=C(NO)c1ccc2c(c1)CC(Nc1nccc(C(F)(F)F)n1)CC2 (stereo not shown) [Example 8, 7-(4-Trifluoromethyl-pyrimidin-2-ylamino)-5,6,7,8-tetrahydro-naphthalene-2-carboxylic acid hydroxyamide] | −0.12 | −0.06 | −0.19
16 | 0.29 µM | 1.68 µM | CCOc1cc(C)nc(NC2CCc3ccc(C(=O)NO)cc3C2)n1 (stereo not shown) [Example 9, 7-(4-Ethoxy-6-methyl-pyrimidin-2-ylamino)-5,6,7,8-tetrahydro-naphthalene-2-carboxylic acid hydroxyamide] | −0.21 | −0.03 | −0.10
17 | 0.26 µM | 0.97 µM | O=C(NO)c1ccc2c(c1)CC(Nc1nccc(-c3ccc(F)cc3)n1)CC2 (stereo not shown) [Example 12, 7-[4-(4-Fluoro-phenyl)-pyrimidin-2-ylamino]-5,6,7,8-tetrahydro-naphthalene-2-carboxylic acid hydroxyamide] | 0.10 | 0.00 | −0.10
